Laboratory results: patent US20240293322A1, “SUSTAINED RELEASE FORMULATIONS COMPRISING A SELECTIVE ANDROGEN RECEPTOR MODULATOR” (University of Iowa Research Foundation, priority 2021, published 2024)
“Also recorded” adds a separate entry of the source.

Key:
[1] = test system: acidic saline muscle pain model; experiment: Acidic saline muscle pain (fibromyalgia) model, muscle withdrawal threshold (MWT); type: in vivo, C57BL/6J mice
Procedure: A SARM was tested its ability to alleviate pain using a model of fibromyalgia (Sluka et al., 2001). The model is induced by repeated injections of acidic saline into the gastrocnemius muscle, 5 days apart. After the second injection animals develop widespread pain behavior, termed hyperalgesia, that resolves in 4 weeks. Pain-behaviors are tested by using a device to apply deep pressure to the gastrocnemius muscle; withdrawal from this pressure is considered a pain-response.
Pain was induced using the model after which daily administration of SARMs or a vehicle was performed for 4 weeks. Withdrawal thresholds of the muscle were tested before and after induction of the model, and weekly after administration of the SARM. A decrease in withdrawal threshold is interpreted as increased pain sensitivity or hyperalgesia. […] Daily administration is clinically cumbersome and results in lower adherence to the treatment and so a long acting SARM containing microparticle formulation was developed to treat pain, e.g., chronic pain.
(§1) A decrease in MWT was interpreted as muscle hyperalgesia.
The SARM, (s)-3-(4-cyanophenoxy)-n-(4-cyano-3-(trifluoromethyl)phenyl)-2-hydroxy-2-methylpropanamide (Achemblock, San Francisco, CA, USA), was used in the following experiments. To test for the analgesic effects of SARM the acidic saline muscle pain model was induced and the presence of hyperalgesia 24 hours after model induction was confirmed. Animals then received daily subcutaneous injections of either SARM or vehicle for the next 4 weeks. For SARM administration, the drug was dissolved in dimethyl sulfoxide (DMSO; Fisher Scientific, Waltham, MA, USA) at a concentration of 50 mg/ml and then diluted in polyethylene glycol 300 (PEG300; Med Lab Supply, Pompano Beach, FL, USA) until a final solution of 10 mg/ml in 80:20 PEG300:DMSO was achieved. Animals were anesthetized with 2-4% isoflurane and SARM (25 mg/kg) or vehicle were delivered subcutaneously. This dose was chosen based on prior literature which found greatest effect at this dose (Gao et al., 2004). […]

[2] = test system: acidic saline muscle pain model; experiment: Acidic saline muscle pain model, paw allodynia by von Frey monofilament; type: in vivo, C57BL/6J mice; conditions: daily SARM 25 mg/kg s.c. for 4 weeks vs vehicle; ipsilateral and contralateral paw
Description: as §1

[3] = test system: C57BL/6J mice; experiment: Rewarding behavior, condition place preference testing; type: in vivo; conditions: SARM 25 mg/kg s.c. daily for 5 days
Description: To test if SARM produced rewarding behavior condition place preference testing was employed using a 9-day testing paradigm. The boxes used for testing were 27.5″ by 8.25″ divided into two 10.75″ by 8.25″ pairing chambers and a 4.75″ by 8.25″ middle chamber. The pairing chambers had different colored walls (solid black vs black and white stripe) and floor textures (smooth vs ridged). The middle chamber had solid black walls with smooth floors and was illuminated. Acclimation and baseline testing occurred over the first 3 days. Animals were placed in boxes with access to all 3 chambers for 15 minutes. On the third day, time spent in each box was recorded. Drug pairing then occurred for 5 days on days 4 through 8. Each day, animals were injected subcutaneously with SARM vehicle (80:20; PEG300:DMSO) and placed in a pairing chamber for 60 minutes. Animals were then returned to their home cages. Four hours later animals were subcutaneously injected with SARM (25 mg/kg) and were confined to the opposite pairing chamber for 60 minutes. Chamber pairings were counterbalanced amongst animals. Following pairing, on day 9, animals were placed in boxes with access to all 3 chambers for 15 minutes with time spent in each box recorded. In order to determine if rewarding behavior was present, the amount of time spent in SARM paired chambers was compared between baseline and post drug pairing.

C[C@](O)(COc1ccc(C#N)cc1)C(=O)Nc1ccc(C#N)c(C(F)(F)F)c1 [SARM, (s)-3-(4-cyanophenoxy)-n-(4-cyano-3-(trifluoromethyl)phenyl)-2-hydroxy-2-methylpropanamide]
effect on hyperalgesia in male versus female mice ([1]; Example 1): worked equally in male and female mice | withdrawal thresholds of the gastrocnemius muscle (pain thresholds, muscle hyperalgesia) ([1]; Example 1: daily administration of free SARM for 4 weeks vs vehicle, left and right muscle): higher pain thresholds than those receiving vehicle treatment; also recorded: reversed muscle hyperalgesia | muscle hyperalgesia measured via muscle withdrawal threshold (MWT) ([1]; daily SARM 25 mg/kg s.c. for 4 weeks vs vehicle, ipsilateral and contralateral limb): alleviated decreased MWT bilaterally in both sexes; also recorded: significant reversal in muscle hyperalgesia; also recorded: reversed muscle hyperalgesia | paw allodynia / paw hypersensitivity (von Frey number of responses) [2]: no effect on paw allodynia; also recorded: unable to alleviate paw hypersensitivity | preference for SARM paired chamber (reward like behavior) ([3]; baseline vs post drug pairing): did not show an increased preference for the SARM paired chamber; also recorded: no preference for the SARM paired chamber | time spent in SARM paired chamber, post drug pairing ([3]; baseline 380.3±51.0 sec, mean±SEM): 385.7 ± 37.1 s
